From patent publication US7235392B2, “Apoptotic EBV-transformed lymphocytes, a therapeutic agent for post-transplant lymphoproliferative disorder” (The Ohio State University Research Foundation, priority 2001, dated 2007)

Tests used:
[1] = system: EBV infected human lymphoblastoid cells (LCLs); settings: 10 mM glutathione
[2] = system: PA-Lymphoblastoid Cell Line; assay: PA-Lymphoblastoid Cell Line: effect of oxygen deprivation in the presence of 3 sensitizers (cell counts); assay type: cell-based; settings: for cell count, Time (hour) 0: time 0 h; for cell count, Time (hour) 0 / cell count, Time (hour) 4 / cell count, Time (hour) 20: solutions and cells bubbled with nitrogen for 15 minutes (oxygen deprivation); for cell count, Time (hour) 4: time 4 h; for cell count, Time (hour) 20: time 20 h
Experimental: PA-Lymphoblastoid Cell Line: Study of the effect of oxygen deprivation in the presence of 3 sensitizers Six solutions were prepared having the solutions and the cells from each of the 6 sets were “bubbled” with nitrogen separately for 15 minutes before being mixed.

LCLs = assay: Cell synchronization with aphidicolin, flow cytometric cell cycle analysis of propidium iodide stained cells; assay type: cell-based, human
Source text: Using a method described by Matherly^1 cell synchronization may be achieved with the drug aphidicolin, a DNA polymerase inhibitor. This drug prevents the cells from entering S-phase, the phase during which the cells replicate their DNA. Therefore, the cells accumulate at G1 phase, immediately prior to the start of S phase. These effects of aphidicolin are reversible; the cells return to normal cell-cycling soon after the drug is removed from the culture by washing. Thus, because all of the cells were synchronized together in G1, after removal of aphidicolin, they will proceed through S-phase together. Using flow cytometric analyis of propidium-iodine stained cells, as described by Krishan^2, we were able to determine the stage of cell cycle of the cultures:
Consequently, we hypothesize that treatment with aphidicolin will increase the effectiveness of specific killing via RBO-DNA photochemistry.

N[C@@H](CCC(=O)N[C@@H](CS)C(=O)NCC(=O)O)C(=O)O [glutathione]
cell growth [1]: grow normally

Cc1cc2nc3c(=O)[nH]c(=O)nc-3n(C[C@H](O)[C@H](O)[C@H](O)CO)c2cc1C [Riboflavin (RB), Riboflavin]
cell count, Time (hour) 0 [2]: 1 million cells/mL | cell count, Time (hour) 4 [2]: 0.9 million cells/mL | cell count, Time (hour) 20 [2]: 0.63 million cells/mL

Cc1cc2c(cc1C)[n+]([O-])c1c(=O)[nH]c(=O)nc-1n2CC(O)C(O)C(O)CO (stereo not shown) [RBO, riboflavin N-oxide]
hypoxic toxicity ([2]; oxygen deprivation, conclusion from cell counts): high hypoxic toxicity | cell count, Time (hour) 0 [2]: 0.45 million cells/mL | cell count, Time (hour) 4 [2]: 0.46 million cells/mL | cell count, Time (hour) 20 [2]: 0.06 million cells/mL

C[C@@]1(CO)[C@H](O)CC[C@@]2(C)[C@H]1CC[C@H]1C[C@@H]3C[C@@]12CC[C@]3(O)CO [aphidicolin]
proportion of cells in S-phase (LCLs; after aphidicolin treatment and removal): significantly increases | time of peak proportion of cells in S-phase after removal of aphidicolin (LCLs; after removal of aphidicolin from solution): 6 h

Nc1n[n+]([O-])c2ccccc2[n+]1[O-] [Tirapazamine (TPZ), Tirapazamine]
cell count, Time (hour) 0 [2]: 0.4 million cells/mL | cell count, Time (hour) 4 [2]: 0.4 million cells/mL | cell count, Time (hour) 20 [2]: 0.36 million cells/mL
